Patent US20160319277A1, “METHODS OF IMPROVED PROTEIN PRODUCTION USING MIRNAs AND SIRNAs” (THE JOHNS HOPKINS UNIVERSITY, priority 2015, published 2016)

Assays:
[1] = tested on: HEK 293 cell lines expressing luciferase, GPC3-hFc, NTSR1-GFP, SERT-GFP; experiment: Validation transfection of siRNAs against ten selected genes in four HEK 293 cell lines expressing different reporter proteins; type: cell-based, human; conditions: 40 nM, 1 representative siRNA per gene; for expression of reporter proteins: luciferase, GPC3-hFc, NTSR1-GFP, SERT-GFP
Procedure: Ten targeted genes were selected and tested in four HEK 293 cell lines expressing different reporter proteins, glycan-3 hFc-fision protein (GPC3-hFc), neurotensin receptor type 1-GFP (NTSR1-GFP) and serotonin transporter-GFP (SERT-GFP), using 1 representative siRNA for each gene. Transfection was performed in 12-well plate format. 500 μL of serum free DMEM media containing siRNA and Lipofectamine™ RNAiMax was incubated in each well for 20 min at ambient temperature and 500 μL DMEM containing 20% FBS and cells was then added for transfection. The final siRNA concentration in each well was 40 nM. Lipofectamine™ RNAiMax volume and cell seeding number in each well have been optimized for each cell line (Table 2).
5 days after transfection, clarified cell culture supernatant was used for determination of GPC3-hFc concentration by ELISA and cells were detached and counted by trypan blue exclusion using a CEDEX™ cell quantification system (Roche, Mannheim, Germany). AffiniPure™ F(ab′)2 Fragment Goat Anti-Human IgG (min X Bov, Ms, Rb Sr Prot, Cat. 109-006-170, Jackson Immunology, 5 μg/mL in PBS) was used to coat a 96-well plate (50 μL per well) at 4° C. overnight. After blocking the plate with 2% BSA in PBS, 50 μl of pre-diluted cell culture supernatant was added, and the plate was incubated at room temperature for 1 h to allow binding to occur. After the plate was washed twice with PBS containing 0.05% Tween 20, Peroxidase-conjugated AffiniPure™ Goat-anti-human IgG (Cat. 109-035-098, Jackson Immunology) was added at 1:4000 dilution (50 μL/well). Following incubation at room temperature for 1 hr, the plate was washed 4 times and signals were detected with Peroxidase Substrate System (KPL).
3 days after transfection, cells were induced with 1 μg/mL tetracycline. 24 hours later, cells from each well were detached with non-enzymatic cell dissociation buffer (Gibco, Cat. No. 13150-016) and washed twice with cold PBS. Cell densities were adjusted to 0.5 million cells/ml with PBS and then subjected to flow cytometry analysis. Green fluorescence was measured with Guava Easycyte 5HT™ and Incyte™ software (Millipore). The green fluorescence signal and cell gating were adjusted using uninduced T-REx-293-NTSR1-GFP cells, with more than 99.5% of the cells in low fluorescence range (<100). The setting was kept the same for all cell samples.

[2] = tested on: T-REx-293-NTSR1-GFP cells; experiment: High-throughput human miRNA mimic library screen, image-based per cell green fluorescence (NTSR1-GFP expression); conditions: per cell green fluorescence intensity; for MAD-based z-score: 72 h after transfection plus 24 h tetracycline induction
Procedure: T-REx-293-NTSR1-GFP cells were screened with a miRNA mimic library (Qiagen) based on Sanger miRBase™ 13.0 and consisting of 875 miRNAs mimics. For transfection, 0.8 pmol of each mimic was spotted to 384 well plate wells (Corning) and 20 μL of serum-free DMEM containing 0.1 μL of Lipofectamine™ RNAiMax (Life Technologies) was then added to each well. This lipid-miRNA mixture was incubated at ambient temperature for 30 min prior to adding 2000 cells in 20 μL of DMEM containing 20% certified FBS (Gibco). Transfected cells were incubated at 37° C. in 5% CO2 for 72 hours and induced with 1 μg/mL tetracycline for 24 hours for NTSR1-GFP expression. Cells were then fixed with 2% paraformaldehyde (Electron Microscopy Sciences), stained with Hoechst™ 33342 (Life Technologies) for 45 minutes and gently washed with PBS. Plates were imaged with an ImageXpress Micro XL™ (Molecular Devices). Total cell number and per cell green fluorescence intensity were calculated using MetaXpress™ software (Molecular Devices) employing the Multi-Wavelength Cell Scoring™ application module. […] A full column of positive control siRNA targeting GFP (GFP-22 siRNA, Qiagen) was also used as on-plate reference for transfection efficiency. The median absolute deviation (MAD)-based z-score was calculated for each sample.

NTSR1 = experiment: [3H]NT binding assay on detergent-solubilized cells for functional expression of NTSR1; type: cell-based; conditions: [3H]NT binding
Procedure: Validation transfections were performed in 12-well plates with miScript™ miRNA mimics (Qiagen, Cat. No. 219600-S0), SilencerSelect™ Negative Control #2 and lethal control siRNA (Qiagen AllStars Cell Death Control™) served as a control for transfection efficiency. Cells were transfected as described for screening except 0.15 million cells were transfected with 40 nM miRNA using 6.25 ul Lipofectamine™ RNAiMax in a total volume of 1 mL of media. 72 hours after transfection, cells were induced with 1 μg/mL tetracycline. 24 hours later, cells from each well were detached with non-enzymatic cell dissociation buffer (Gibco, Cat. No. 13150-016) and washed twice with cold PBS. Cell densities and viability were determined by trypan blue exclusion using a CEDEX™ cell quantification system (Roche, Mannheim, Germany). Based on the counts, cell densities were adjusted to 0.5 million cells/ml with PBS and then subject to flow cytometry analysis. The remaining cells were pelleted and frozen on dry ice for [^3H]NT binding assays.
The detergents n-Dodecyl-β-D-maltoside (LM), 3-[(3-cholamidopyropyl) dimethylammonio]-1-propane sulfonate (CHAPS) and cholesteryl hemisuccinate Tris salt (CHS) were obtained from Anatrace. Cell pellets from 2 mL of suspension culture were suspended in Tris-glycerol-NaCl buffer. Then the detergents LM, CHAPS and CHS were added to give a final buffer composition of 50 mM TrisHCl pH 7.4, 200 mM NaCl, 30% (v/v) glycerol, 1% (w/v) LM, and 0.6% (w/v) CHAPS and 0.12% (w/v) CHS in a total volume of 0.5 mL. The samples were placed on a rotating mixer at 4° C. for 1 hour. Cell debris and non-solubilized material were removed by ultracentrifugation (TL100 rotor, 60 k rpm, 4° C., 30 min in Optima Max™ bench-top ultracentrifuge, Beckman), and the supernatants containing detergent-solubilized NTSR1 were used to determine the total number of expressed receptors by a detergent-based radio-ligand binding assay (see below).
Tritiated neurotensin agonist [^3H]NT ([3,11-tyrosyl-3,5-^3H(N)]-pyro[…] SEQ ID NO:27) was purchased from Perkin Elmer. Ligand-binding assays with detergent-solubilized receptors were carried out in TEBB assay buffer (50 mM Tris pH 7.4, 1 mM EDTA, 40 μg/mL bacitracin, 0.1% BSA) containing 0.1% (w/v) LM, 0.2% (w/v) CHAPS and 0.04% (w/v) CHS. For one-point assays, receptors were incubated with 2 nM [^3H]NT on ice for 1 hour in a volume of 150 μL. The concentration of [^3H]NT used was at least 5-fold above the apparent dissociation constants for detergent-solubilized NTSR1 to allow high receptor occupancy. Separation of the receptor-ligand complex from free ligand (100 μL) was achieved by centrifugation-assisted gel filtration using Bio-Spin™ 30 Tris columns (BioRad), equilibrated with RDB buffer (50 mM Tris-HCl, pH 7.4, 1 mM EDTA, 0.1% (w/v) LM, 0.2% (w/v) CHAPS, 0.04% (w/v) CHS). Non-specific [^3H]NT binding of 220 dpm was subtracted from total binding to calculate the total amount of receptors in T-REx-293-NTSR1-GFP cells. The number of functional NTSR1 was estimated by specific [^3H]NT binding assuming one ligand-binding site per receptor molecule. The number of cells in the assay was derived by cell counting at cell harvest. This approach led to the calculation of the parameter “receptors/cell”.

[3] = tested on: CMV-Luc2-HygroHEK293 cell line; experiment: Validation of miRNAs with luciferase-expressing cells (ONE-Glo / CellTiter-Glo, 12-well); type: cell-based, human; conditions: 40 nM miRNA, 72 h, 12-well, versus siN.C.
Procedure: CMV-Luc2-HygroHEK293 cell line constitutively expressing luciferase is purchased from Promega. Validation transfections were performed in 12-well plates with miScript miRNA mimics (Qiagen, Cat. No. 219600-S0), SilencerSelect™ Negative Control #2 and lethal control siRNA (Qiagen AllStars Cell Death Control™) served as a control for transfection efficiency. Cells were transfected in duplicates as described above in the screening method with the following modification: 0.1 million cells were transfected with 40 nM miRNA using 6.25 ul Lipofectamine™ RNAiMax in a total volume of 1 mL of media. 72 hours after transfection, 500 μL of ONE-Glo™ Reagent (Promega) was added to one set of replicates for luciferase activity quantification and 500 μL of CellTiter-Glo™ Reagent (Promega) was added to the second set of replicates for viable cell density measurement. All plates were incubated at room temperature for 20 minutes to stabilize luminescent signal and then measured with SpectraMax i3™ plate reader (Molecular Devices). Per cell luciferase production was calculated from overall luciferase activity and viable cell number.

HEK-GPC3-hFc cell line = experiment: Validation of miRNAs with GPC3-hFc-expressing cells (ELISA and cell count); type: cell-based, human; conditions: 40 nM miRNA, 6 days after transfection, versus siN.C.
Procedure: HEK-GPC3-hFc cell line constitutively secreting glypican-3 hFc-fusion protein (GPC3-hFc) was a gift from the National Cancer Institute of the NIH. Cells were grown in DMEM supplemented with 10% FBS in a humidified incubator set at 37° C. and 5% CO2.
Cells were transfected in 12-well plates as described above in the screening method with the following modification: 0.15 million cells were transfected with 40 nM miRNA using 6.25 ul Lipofectamine™ RNAiMax in a total volume of 1 mL of media. 6 days after transfection, cell culture supernatant was collected and cleared using centrifuge for GPC3-hFc concentration determination with ELISA and cells were detached and counted by trypan blue exclusion using a CEDEX™ cell quantification system (Roche, Mannheim, Germany). Per cell GPC3-hFc production can be calculated from overall GPC3-hFc yield and viable cell number.
AffiniPure™ F(ab′)2 Fragment Goat Anti-Human IgG (min X Bov, Ms, Rb Sr Prot, Cat. 109-006-170, Jackson Immunology) was used to coat a 96-well plate at 5 μg/mL in PBS buffer, 50 μL per well, at 4° C. overnight. After the plate was blocked with 2% BSA in PBS buffer, pre-diluted cell culture supernatant was added, and the plate was incubated at room temperature for one hour to allow binding to occur. After the plate was washed twice with PBS containing 0.05% Tween 20, Peroxidase-conjugated AffiniPure™ Goat-anti-uman IgG (Cat. 109-035-098, Jackson Immunology) was added at 1:4000 dilutions, 50 ul/well. Following incubating at room temperature for one hour, the plate was washed 4 times and detected with Peroxidase Substrate System (KPL).

Row | Substance | viable cell number [1] | expression of reporter proteins [1] | Signal relative to negative control (%) [2] | MAD-based z-score [2] | improvement of functional expression of NTSR1 compared with siN.C. (NTSR1) | improvement of luciferase expression (per cell luciferase activity) [3] | improvement of per cell GPC3-hFc secretion (HEK-GPC3-hFc cell line) | change of overall GPC3-hFc production (HEK-GPC3-hFc cell line)
1 | INTS1 siRNA: 1 representative siRNA for gene INTS1 used in validation transfection; sequence not stated (guide AGAUCUUUGUCAAGGUGUATT; other strand without entry, further chemistry not given here; listed as Homo sapiens) | significantly reduced viable cell number | consistently improved | – | – | – | – | – | –
2 | UAAUACUGUCUGGUAAAACCGU (listed as RNA, chemistry not given here; listed as Homo sapiens) [miR-429, human miRNA mimic] | – | – | 212% | 4.2 | improved functional activity levels | relevant for improving luciferase expression | enhanced per cell GPC3-hFc secretion | –
3 | PPP2R1A siRNA: 1 representative siRNA for gene PPP2R1A used in validation transfection; sequence not stated (guide CUUCGACAGUACUUCCGGATT; other strand without entry, further chemistry not given here; listed as Homo sapiens) | minimal negative effects | consistently improved | – | – | – | – | – | –
4 | UAAGGUGCAUCUAGUGCAGAUAG (listed as RNA, chemistry not given here; listed as Homo sapiens) [miR-18a-5p, human miRNA mimic] | – | – | 149% | 2.0 | improved functional activity levels | relevant for improving luciferase expression | enhanced per cell GPC3-hFc secretion | effectively enhanced overall GPC3-hFc
